A short description of data set [1]: Physical stability of peptide analogues (Thioflavin T fibrillation). The class given is physicochemical. To be noted: maximum ThT signal normalized between hAMY maximum and buffer background; 40° C., shaking, four days; pH 7 per table title. The method, boiled down: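 Samples are stressed at 40 °C for four days, being shaken at 700 rpm before each 10-min fluorescence reading of 4 μM Thioflavin T. Buffers were pH 4 acetate or pH 7 phosphate. Reported values are smoothed maximum ThT signals as a percentage of the hAMY-to-background range.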

The target in another data set is T1, hAMY3 receptor (Homo sapiens, UniProt O60896+P30988).
T1 sequence (P30988 25-474): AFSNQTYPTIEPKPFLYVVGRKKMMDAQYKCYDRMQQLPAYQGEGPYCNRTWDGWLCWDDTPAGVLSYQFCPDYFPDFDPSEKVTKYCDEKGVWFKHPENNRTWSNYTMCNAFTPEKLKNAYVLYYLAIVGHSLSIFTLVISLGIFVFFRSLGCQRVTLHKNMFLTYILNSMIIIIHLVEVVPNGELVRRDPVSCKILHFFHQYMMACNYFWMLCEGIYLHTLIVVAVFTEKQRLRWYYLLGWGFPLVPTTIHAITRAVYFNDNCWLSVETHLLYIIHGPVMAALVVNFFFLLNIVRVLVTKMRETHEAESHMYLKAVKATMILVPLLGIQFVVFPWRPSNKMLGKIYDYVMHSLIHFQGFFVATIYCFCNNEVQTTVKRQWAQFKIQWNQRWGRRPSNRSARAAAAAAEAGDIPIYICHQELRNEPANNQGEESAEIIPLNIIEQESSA
T1 sequence (O60896 24-148 partner): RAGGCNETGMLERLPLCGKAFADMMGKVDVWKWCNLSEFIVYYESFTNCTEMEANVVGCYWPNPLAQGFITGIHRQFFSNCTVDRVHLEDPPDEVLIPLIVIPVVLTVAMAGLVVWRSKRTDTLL
In words: cAMP assay for in vitro receptor activation, hAMY3-R. To be noted: cAMP assay, hAMY3 receptor; read-out: hAMY3R EC50. The class given is cell-based. The gist of the method: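 Accumulated cAMP was detected by time-resolved FRET one hour after reagent addition. Beforehand, hAMY3-R-overexpressing monoclonal cells (2000/well, DPBS, 0.05% casein, 0.5 mM IBMX) received graded doses of compound for 30 min at room temperature; human amylin served as positive control.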
(Cyclic AMP is a second messenger, typically raised through Gs and lowered through Gi signalling.)

Results on 3 molecules are retold here after patent US12139520B2 (priority 2020, dated 2024).

Broadly, the EC50 is the concentration at which the effect is half-maximal.

Bridge positions count the residues as written; N and C are the ends. Square brackets hold non-standard residues; d marks the D form. Peptide text beside a SMILES is read from it. Hyp = O=C(O)[C@@H]1C[C@@H](O)CN1; Cit = NC(=O)NCCC[C@H](N)C(=O)O

With `CC[C@H](C)[C@H](NC(=O)[C@H](CCC(N)=O)NC(=O)[C@H](Cc1c[nH]cn1)NC(=O)[C@H](C)NC(=O)[C@H](CC(C)C)NC(=O)[C@H](CCCNC(=N)N)NC(=O)[C@H](CCC(N)=O)NC(=O)[C@@H](NC(=O)[C@@H](NC(=O)[C@@H]1CSSC[C@H](NC(=O)CN)C(=O)N[C@@H](CCCNC(=N)N)C(=O)N[C@@H]([C@@H](C)O)C(=O)NCC(=O)N[C@@H]([C@@H](C)O)C(=O)N1)[C@@H](C)O)C(C)C)C(=O)N[C@@H](Cc1ccc(O)cc1)C(=O)N[C@@H](CCC(N)=O)C(=O)N[C@@H](Cc1ccccc1)C(=O)N[C@H](C(=O)N[C@@H](CC(=O)O)C(=O)N[C@@H](CCCCN)C(=O)N[C@@H](CC(=O)O)C(=O)N[C@@H](CCCCN)C(=O)N[C@@H](CC(=O)O)C(=O)N[C@@H](CC(N)=O)C(=O)N[C@H](C(=O)N[C@@H](C)C(=O)N1CCC[C@H]1C(=O)N[C@@H](CCCNC(=N)N)C(=O)N[C@H](C(=O)N[C@@H](CC(N)=O)C(=O)N[C@H](C(=O)N[C@@H](CO)C(=O)N1CCC[C@H]1C(=O)N[C@@H](CCC(N)=O)C(=O)NCC(=O)N[C@@H](Cc1ccc(O)cc1)C(N)=O)C(C)C)[C@@H](C)O)C(C)C)[C@@H](C)O` [compound 176] (H-GCRTGTCTVQRLAHQIYQFTDKDKDNVAPRTNVSPQGY-NH2; disulfide 2-7; N-terminus assumed), in data set [1], the “Max ThT signal (%)” value is given as 6.800%. For the same molecule, the EC50 on hAMY3 receptor was 0.076 nM.

For `CC[C@H](C)[C@H](NC(=O)[C@H](CCC(N)=O)NC(=O)[C@H](Cc1c[nH]cn1)NC(=O)[C@H](C)NC(=O)[C@H](CC(C)C)NC(=O)[C@H](CCCNC(N)=O)NC(=O)[C@H](CCC(N)=O)NC(=O)[C@@H](NC(=O)[C@@H](NC(=O)[C@@H]1CSSC[C@H](NC(=O)CN)C(=O)N[C@@H](CCCNC(=N)N)C(=O)N[C@@H]([C@@H](C)O)C(=O)NCC(=O)N[C@@H]([C@@H](C)O)C(=O)N1)[C@@H](C)O)C(C)C)C(=O)N[C@@H](Cc1ccc(O)cc1)C(=O)N[C@@H](CCC(N)=O)C(=O)N[C@@H](Cc1ccccc1)C(=O)N[C@H](C(=O)N[C@@H](CC(=O)O)C(=O)N[C@@H](CCCCN)C(=O)N[C@@H](CC(=O)O)C(=O)N[C@@H](CCCCN)C(=O)N[C@@H](CC(=O)O)C(=O)N[C@@H](CC(N)=O)C(=O)N[C@H](C(=O)N[C@@H](C)C(=O)N1CCC[C@H]1C(=O)N[C@@H](CCCNC(=N)N)C(=O)N[C@H](C(=O)N[C@@H](CC(N)=O)C(=O)N[C@H](C(=O)N[C@@H](CO)C(=O)N1CCC[C@H]1C(=O)N[C@@H](CC(N)=O)C(=O)NCC(=O)N1C[C@H](O)C[C@H]1C(N)=O)C(C)C)[C@@H](C)O)C(C)C)[C@@H](C)O` [compound 302] (H-GCRTGTCTVQ[Cit]LAHQIYQFTDKDKDNVAPRTNVSPNG[Hyp]-NH2; disulfide 2-7; N-terminus assumed), in data set [1], the “Max ThT signal (%)” value came to 24.250%. The EC50 on hAMY3 receptor stood at 0.071 nM.

Turning to `CC[C@H](C)[C@H](NC(=O)[C@H](CCC(N)=O)NC(=O)[C@H](Cc1c[nH]cn1)NC(=O)[C@H](C)NC(=O)[C@H](CC(C)C)NC(=O)[C@H](CCCNC(N)=O)NC(=O)[C@H](CCC(N)=O)NC(=O)[C@@H](NC(=O)[C@@H](NC(=O)[C@@H]1CSSC[C@H](NC(=O)CN)C(=O)N[C@@H](CCCNC(=N)N)C(=O)N[C@@H](Cc2ccccc2)C(=O)NCC(=O)N[C@@H]([C@@H](C)O)C(=O)N1)[C@@H](C)O)C(C)C)C(=O)N[C@@H](Cc1ccc(O)cc1)C(=O)N[C@@H](CCC(N)=O)C(=O)N[C@@H](Cc1ccccc1)C(=O)N[C@H](C(=O)N[C@@H](CC(=O)O)C(=O)N[C@@H](CCCCN)C(=O)N[C@@H](CC(=O)O)C(=O)N[C@@H](CCCCN)C(=O)N[C@@H](CC(=O)O)C(=O)N[C@@H](CC(N)=O)C(=O)N[C@H](C(=O)N[C@@H](C)C(=O)N1CCC[C@H]1C(=O)N[C@@H](CCCNC(=N)N)C(=O)N[C@H](C(=O)N[C@@H](CC(N)=O)C(=O)N[C@H](C(=O)NCC(=O)N1CCC[C@H]1C(=O)N[C@@H](CCC(N)=O)C(=O)NCC(=O)N1C[C@H](O)C[C@H]1C(N)=O)C(C)C)[C@@H](C)O)C(C)C)[C@@H](C)O` [compound 267] (H-GCRFGTCTVQ[Cit]LAHQIYQFTDKDKDNVAPRTNVGPQG[Hyp]-NH2; disulfide 2-7; N-terminus assumed), the “Max ThT signal (%)” value in data set [1] was found to be 30.900%. At hAMY3 receptor, the EC50 is 0.007 nM.
